Measurements: patent US20070117743A1, “New antitumoral compounds” (priority 2003, published 2007)
Where a SMILES comes first, the peptide text is derived from it. Bridges are numbered along the chain shown (N, C = ends). [ ]: non-standard residue; d: D form. The star is where a group is joined. 2Nal = N[C@@H](Cc1ccc2ccccc2c1)C(=O)O; d(aIle) = CC[C@H](C)[C@@H](N)C(=O)O; d(aThr) = C[C@@H](O)[C@@H](N)C(=O)O; Hexanoyl(5-Me) = CC(C)CCCC(=O)*; Orn = NCCC[C@H](N)C(=O)O; Dhb = C/C=C(\N)C(=O)O

What was measured:
Type in all cases: cell-based, human
[1] = system: IGROV-ET; test: SRB colorimetric assay of cell growth and viability, IGROV-ET; conditions: IGROV-ET, 48 hours exposure; for CC50: read-out: LC50 IGROV-ET
[2] = system: IGROV-1; test: SRB colorimetric assay of cell growth and viability, IGROV-1; conditions: IGROV; 48 hours exposure
[3] = system: PANC-1; test: SRB colorimetric assay of cell growth and viability, PANC-1; conditions: PANC-1, 48 hours exposure; for CC50: read-out: LC50 PANC-1
[4] = system: LoVo; test: SRB colorimetric assay of cell growth and viability, LoVo; conditions: LOVO, 48 hours exposure; for CC50: read-out: LC50 LOVO
[5] = system: SK-BR-3; test: SRB colorimetric assay of cell growth and viability, SK-BR-3; conditions: SK-BR-3; 48 hours exposure
[6] = system: SK-MEL-28; test: SRB colorimetric assay of cell growth and viability, SK-MEL-28; conditions: MEL-28, 48 hours exposure; for CC50: read-out: LC50 MEL-28
[7] = system: DU-145; test: SRB colorimetric assay of cell growth and viability, DU-145; conditions: DU-145; 48 hours exposure
[8] = system: HeLa-APL; test: SRB colorimetric assay of cell growth and viability, HeLa-APL; conditions: HELA-APL, 48 hours exposure; for CC50: read-out: LC50 HELA-APL
[9] = system: HeLa; test: SRB colorimetric assay of cell growth and viability, HeLa; conditions: HELA, 48 hours exposure; for CC50: read-out: LC50 HELA
[10] = system: HT-29; test: SRB colorimetric assay of cell growth and viability, HT-29; conditions: HT-29, 48 hours exposure; for GI50: read-out: GI50 HT-29; for CC50: read-out: LC50 HT-29
[11] = system: LoVo-Dox; test: SRB colorimetric assay of cell growth and viability, LoVo-Dox; conditions: LOVO-DOX, 48 hours exposure; for CC50: read-out: LC50 LOVO-DOX
How it was run: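 SRB staining (0.4% wt/vol in 1% acetic acid, 10 min, room temperature) of cells fixed with 50% TCA follows a 48-hour exposure to compound. Plating density is 5×10^3 cells/well, and the OD is taken at 490 nm.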

[12] = system: K-562; test: SRB colorimetric assay of cell growth and viability, K-562; conditions: K-562, 48 hours exposure; for CC50: read-out: LC50 K-562
[13] = system: A-549; test: SRB colorimetric assay of cell growth and viability, A-549; conditions: A-549, 48 hours exposure; for GI50: read-out: GI50 A-549; for CC50: read-out: LC50 A-549

| Structure (SMILES) | GI50 [1] [nM] | TGI IGROV-ET [1] [Molar] | CC50 [1] [nM] | GI50 [2] [nM] | LC50 (concentration causing 50% net cell killing) [2] [nM] | TGI IGROV [2] [Molar] | GI50 [3] [nM] | TGI PANC-1 [3] [Molar] | CC50 [3] [nM] | GI50 [4] [nM] | TGI LOVO [4] [Molar] | CC50 [4] [nM] | GI50 [5] [nM] | LC50 [5] [nM] | TGI SK-BR-3 [5] [Molar] | GI50 [6] [nM] | TGI MEL-28 [6] [Molar] | CC50 [6] [nM] | GI50 [7] [nM] | LC50 (concentration causing 50% net cell kill) [7] [nM] | further results |
| --- | --- | --- | --- | --- | --- | --- | --- | --- | --- | --- | --- | --- | --- | --- | --- | --- | --- | --- | --- | --- | --- |
| C/C=C1\NC(=O)[C@H](Cc2cccc(Cl)c2)NC(=O)[C@@H](C(C)C)NC(=O)[C@@H]([C@@H](C)CC)NC(=O)[C@H](NC(=O)[C@H](NC(=O)[C@H](CCCN)NC(=O)[C@H]2CCCN2C(=O)[C@H](NC(=O)[C@@H](NC(=O)[C@@H](NC(=O)[C@H](NC(=O)CCCC(C)C)C(C)C)[C@@H](C)O)C(C)C)C(C)C)[C@@H](C)CC)[C@@H](C)OC(=O)[C@H](C(C)C)NC1=O [Compound 82, [Phe(3-Cl)^3]-KF] | 110 | 2.20E−07 | 576 | 69.5 | 182 | 1.13E−07 | 965 | 1.84E−06 | 1840 | 40.6 | 8.73E−08 | 180 | 58.9 | 184 | 1.04E−07 | 297 | 4.41E−07 | 935 | 209 | 553 | TGI DU-145 [7]: 3.40E−07 Molar; GI50 [8]: 192 nM; TGI HELA-APL [8]: 3.25E−07 Molar; CC50 [8]: 551 nM; GI50 [9]: 127 nM; TGI HELA [9]: 2.75E−07 Molar; CC50 [9]: 521 nM; TGI HT-29 [10]: 1.19E−07 Molar; GI50 [10]: 77.5 nM; CC50 [10]: 187 nM; GI50 [11]: 45.3 nM; TGI LOVO-DOX [11]: 9.10E−08 Molar; CC50 [11]: 892 nM; GI50 [12]: 658 nM; TGI K-562 [12]: 1.02E−06 Molar; CC50 [12]: 1590 nM; TGI A-549 [13]: 6.03E−07 Molar; GI50 [13]: 291 nM; CC50 [13]: 1490 nM |
| C/C=C1\NC(=O)[C@H](Cc2ccc(Cl)cc2)NC(=O)[C@@H](C(C)C)NC(=O)[C@@H]([C@@H](C)CC)NC(=O)[C@H](NC(=O)[C@H](NC(=O)[C@H](CCCN)NC(=O)[C@H]2CCCN2C(=O)[C@H](NC(=O)[C@@H](NC(=O)[C@@H](NC(=O)[C@H](NC(=O)CCCC(C)C)C(C)C)[C@@H](C)O)C(C)C)C(C)C)[C@@H](C)CC)[C@@H](C)OC(=O)[C@H](C(C)C)NC1=O [Compound 83, [Phe(4-Cl)^3]-KF] | 65.2 | 1.21E−07 | 587 | 37.1 | 143 | 7.69E−08 | 658 | 1.07E−06 | 1750 | 30.3 | 6.27E−08 | 165 | 34.2 | 155 | 5.29E−08 | 206 | 3.40E−07 | 561 | 83 | 461 | TGI DU-145 [7]: 2.07E−07 Molar; GI50 [8]: 96.5 nM; TGI HELA-APL [8]: 2.28E−07 Molar; CC50 [8]: 470 nM; GI50 [9]: 51.9 nM; TGI HELA [9]: 2.00E−07 Molar; CC50 [9]: 475 nM; TGI HT-29 [10]: 8.24E−08 Molar; GI50 [10]: 36.8 nM; CC50 [10]: 172 nM; GI50 [11]: 38.2 nM; TGI LOVO-DOX [11]: 7.81E−08 Molar; CC50 [11]: 1840 nM; GI50 [12]: 333 nM; TGI K-562 [12]: 5.08E−07 Molar; CC50 [12]: 1130 nM; TGI A-549 [13]: 3.62E−07 Molar; GI50 [13]: 221 nM; CC50 [13]: 593 nM |
| C/C=C1\NC(=O)[C@H](Cc2ccc(F)c(F)c2)NC(=O)[C@@H](C(C)C)NC(=O)[C@@H]([C@@H](C)CC)NC(=O)[C@H](NC(=O)[C@H](NC(=O)[C@H](CCCN)NC(=O)[C@H]2CCCN2C(=O)[C@H](NC(=O)[C@@H](NC(=O)[C@@H](NC(=O)[C@H](NC(=O)CCCC(C)C)C(C)C)[C@@H](C)O)C(C)C)C(C)C)[C@@H](C)CC)[C@@H](C)OC(=O)[C@H](C(C)C)NC1=O [Compound 84, [Phe(3,4-F2)^3]-KF] | 65.1 | 1.16E−07 | 343 | 47.2 | 155 | 9.40E−08 | 725 | 1.17E−06 | 1840 | 31.7 | 7.25E−08 | 150 | 27.3 | 136 | 5.34E−08 | 224 | 3.55E−07 | 561 | 111 | 463 | TGI DU-145 [7]: 2.54E−07 Molar; GI50 [8]: 117 nM; TGI HELA-APL [8]: 2.49E−07 Molar; CC50 [8]: 467 nM; GI50 [9]: 70.6 nM; TGI HELA [9]: 2.17E−07 Molar; CC50 [9]: 451 nM; TGI HT-29 [10]: 9.77E−08 Molar; GI50 [10]: 62.7 nM; CC50 [10]: 152 nM; GI50 [11]: 32.3 nM; TGI LOVO-DOX [11]: 6.88E−08 Molar; CC50 [11]: 176 nM; GI50 [12]: 560 nM; TGI K-562 [12]: 9.28E−07 Molar; CC50 [12]: 1420 nM; TGI A-549 [13]: 3.96E−07 Molar; GI50 [13]: 224 nM; CC50 [13]: 848 nM |
| C/C=C1\NC(=O)[C@H](Cc2ccc3ccccc3c2)NC(=O)[C@@H](C(C)C)NC(=O)[C@@H]([C@@H](C)CC)NC(=O)[C@H](NC(=O)[C@H](NC(=O)[C@H](CCCN)NC(=O)[C@H]2CCCN2C(=O)[C@H](NC(=O)[C@@H](NC(=O)[C@@H](NC(=O)[C@H](NC(=O)CCCC(C)C)C(C)C)[C@@H](C)O)C(C)C)C(C)C)[C@@H](C)CC)[C@@H](C)OC(=O)[C@H](C(C)C)NC1=O [Compound 85, [Nal^3]-KF] ({Hexanoyl(5-Me)}-[dV]TV[dV][dP][Orn][d(aIle)][d(aThr)][d(aIle)][dV][2Nal][Dhb]V; ester 8-C) | 74.3 | 1.44E−07 | 425 | 49.8 | 169 | 9.81E−08 | 694 | 1.04E−06 | 1570 | 32.8 | 8.16E−08 | 192 | 37.1 | 170 | 5.80E−08 | 230 | 3.64E−07 | 579 | 111 | 488 | TGI DU-145 [7]: 2.53E−07 Molar; GI50 [8]: 90.7 nM; TGI HELA-APL [8]: 1.91E−07 Molar; CC50 [8]: 427 nM; GI50 [9]: 78.6 nM; TGI HELA [9]: 1.94E−07 Molar; CC50 [9]: 462 nM; TGI HT-29 [10]: 1.16E−07 Molar; GI50 [10]: 73.1 nM; CC50 [10]: 278 nM; GI50 [11]: 37 nM; TGI LOVO-DOX [11]: 8.77E−08 Molar; CC50 [11]: 847 nM; GI50 [12]: 301 nM; TGI K-562 [12]: 7.13E−07 Molar; CC50 [12]: 1380 nM; TGI A-549 [13]: 3.39E−07 Molar; GI50 [13]: 192 nM; CC50 [13]: 599 nM |
